The subject of series [1] is HCMV proteins (IE1/2, pp65). Description: Western blot of HCMV proteins in infected HFFs. The format is cell-based, human cytomegalovirus. Here is the method:
Cell lysates containing equivalent amount of proteins were mixed with an equal volume of sample buffer (125 mM Tris-HCL, pH 6.8, 4% SDS, 20% glycerol and 5% β-mercaptoethanol) and boiled at 100° C. for 10 min. Denatured proteins were resolved in Tris-glycine polyacrylamide gels (10-12%) and transferred to polyvinylidine difluoride (PVDF) membranes (Bio-Rad Laboratories, Hercules, Calif.) by electroblotting. Membranes were incubated in blocking solution [5% w/v non-fat dry milk and 0.1% Tween-20 in PBS (PBST)] for 1 h, washed with PBST, and incubated with antibody at 4° C. overnight. Membranes were washed with PBST and incubated with horseradish peroxidase-conjugated secondary antibodies in PBST for 1 h at room temperature. Following washing with PBST, protein bands were visualized by chemiluminescence using SuperSignal West Dura and Pico reagents (Pierce Chemical, Rockford, Ill.). Antibodies for HCMV proteins were used at 1:2000 and included: mouse monoclonal anti-HCMV IE1 & IE2 (MAB810, Millipore, Billerica, Mass.), mouse monoclonal anti-HCMV UL83 (pp65, Vector Laboratories Inc., Burlingame, Calif.), and mouse monoclonal anti-pp52 (UL44, Santa Cruz Biotechnology, Santa Cruz, Calif.). Rabbit polyclonal anti human-NOD2 antibody (H-300, 1:2000), rabbit polyclonal anti-RIPK2 (1:5000), mouse monoclonal anti-NF-KB (p65, 1:1000), rabbit polyclonal anti-IRF3 (1:1000) and mouse monoclonal anti-IRF7 (1:1000) were from Santa Cruz. Rabbit monoclonal anti-Histone H3 (1:2000), rabbit monoclonal anti-pERK1/2 (1:5000), mouse monoclonal anti-total ERK (1:2000), rabbit monoclonal anti-pIκBα (1:2000), mouse monoclonal anti-IκBα, rabbit monoclonal anti-pTBK1 (Ser172), and rabbit monoclonal anti-TBK1 (1:1000) were from Cell Signaling Technology, Beverly, Mass. Horseradish peroxidase (HRP)-conjugated anti-rabbit IgG was from Cell Signaling. […]
Quantitative analysis of proteins detected by immunoblotting was performed using ImageJ 1.48v software (NIH) by determining relative band intensities of individual bands. […]
A general note: Immunoblotting shows a protein as a band on a membrane.

Series [2] has as its system HFFs. The series can be described thus: MTT cell viability assay. The format is cell-based, Human. Here is the method:
MTT assay (Sigma-Aldrich) was performed to rule out any cytotoxicity induced by MDP treatment. Cells (HFFs and transduced GIPZ/shIFNβ-HFFs as described below) were pretreated with MDP for 96- and 72 h, respectively and 20 μl/well of MTT [3-(4, 5-Dimethyl-2-thiazolyl)-2, 5-diphenyl-2H-tetrazolim bromide, 5 mg/mL in phosphate buffered saline (PBS)] was added to each well. After shaking plates at 150 rpm for 5 minutes the plates were incubated at 37° C. for 3 hours. Conversion of yellow solution to dark blue formazan by mitochondrial dehydrogenases of living cells was quantified by measuring absorbance at 560 nm.
(Tetrazolium assays rely on reduction of a dye to a coloured formazan, in cell work by metabolically active cells.)

Series [3] deals with IL8 mRNA. Description: qRT-PCR of IL8 mRNA in HFFs. The class given is cell-based, Human. The procedure:
Total RNA was isolated from cells using RNAeasy Mini kit (Qiagen, Georgetown, Md.) according to manufacturer's instructions. RevertAid first strand cDNA synthesis kit (Fermentas life sciences, Cromwell Park, Md.) was used to synthesize first strand cDNA from total RNA using oligo-dT primers. Negative reverse-transcriptase (−RT) reactions were included to ensure the specificity of qRT-PCR reactions. Synthesis of first strand cDNA from mRNA template was carried out at 42° C. for 1 h. Quantitative RT-PCR was performed using specific primers and SYBR green (Fermentas life science) with two-step cycling protocol (95° C. for 15 s, 60° C. for 1 min). All reactions were performed in triplicates and GAPDH was used as internal control. The expression level of the tested genes was normalized to the expression of GAPDH.
For orientation: In qPCR the cycle at which signal appears reflects the starting amount.

For series [4], the system named is pp28-luciferase Towne strain. Description: pp28-luciferase HCMV replication assay (first and second cycle). The class given is cell-based, human cytomegalovirus. The following applies: for luciferase activity reduction, second cycle: MOI 1, second cycle 72 h. The procedure:
Human Foreskin Fibroblasts (HFFs) passage 12-16 (ATCC, CRL-2088™) were grown in Dulbecco's Modified Eagle Medium (DMEM) containing 10% fetal bovine serum (FBS) (Gibco, Carlsbad, Calif.) in a 5% CO2 incubator at 37° C. The generation of NOD2-KD HFFs (HFF-shNOD2) and control cells (HFF-GIPZ) was reported. One day prior to infection or treatment, 8×10^4 cells were seeded into each well of 12-well tissue culture plates. Multiplicities of infection were specified for each experiment. The Towne HCMV strain was obtained from ATCC (VR-977). The pp28-luciferase Towne strain which expresses luciferase under the control of the pp28 late promoter has been described. Luciferase activity was measured at 72 or 96 hours post infection (hpi) using the Glomax-Multi+ Detection System (Promega, Madison, Wis.). In second cycle replication assays cell free supernatants from HFFs infected with pp28-luciferase Towne were collected 4 days post completion of first replication cycle (5-10% of total volume/well), and used for infection of fresh HFFs seeded into 12-well plates. Cell lysates were collected after 72 h for luciferase activity. Supernatants from the first cycle were also used to measure virus titer in 12-well plates and plaques were counted at day 8 post infection. A purified preparation of the pp28-luciferase Towne strain was prepared by ultracentrifugation using sucrose gradient. The HCMV TB40 strain was obtained from ATCC (VR-1578). Clinical isolates of HCMV were obtained from the microbiology laboratory at Johns Hopkins Hospital with no identifiers that could be linked to a patient. The Johns Hopkins School of Medicine Office of Human Subject Research Institutional Review Board (IRB-X) determined that the research qualified for an exemption.

As for `CC(=O)N[C@H]1C(O)O[C@H](CO)[C@@H](O)[C@@H]1O[C@H](C)C(=O)N[C@@H](C)C(=O)N[C@H](CCC(=O)O)C(N)=O` (mixture of isomers) [MDP, Muramyl dipeptide], the “decrease in pp65 expression” value in series [1] (MDP treatment after infection, MOI 0.1, 96 hpi) is reported as “approximately 75%”. Also, in series [1] (MDP treatment after infection, higher MOI (MOI 1), 96 hpi), the “reduction in pp65 expression” value was 40%. Further, in series [1] (MOI 0.1, IE1/2 and pp65 expression after 4 days), the “HCMV replication, dose response” value is given as “suppressed HCMV replication (MOI 0.1) in a dose-dependent manner”. Further, in series [2] (HFFs treated 96 h), the “cellular toxicity (MTT)” value was “no toxicity at any of the concentrations used”. The “toxicity / cell growth (MTT)” value in series [2] (control GIPZ or shIFN-β KD HFFs, MDP 10 μg/mL 72 h) is given as “No toxicity or difference in cell growth”. Further, the “increase in IL8 mRNA” value in series [3] (HCMV-infected, MDP treatment, 4 hpi) amounted to 2 fold. The “further increase of IL8 mRNA” value in series [3] (MDP after infection compared to MDP or HCMV alone, irrespective of MOI) is listed as 6-7 fold. This compound returned an IL8 expression induction in series [3] (MDP alone, non-infected, 36 h) of 3 fold. Moreover, the IL8 expression result in series [3] (MDP pretreatment 72 h, non-infected or HCMV-infected) is recorded as “modestly induced”. Also, the “pp28 activity reduction, first cycle” value in series [4] (MDP pretreatment 10 μg/mL 72 h, MOI 0.1, 96 hpi) is listed as 80%. The “pp28 expression (luciferase activity), first cycle” value in series [4] (MDP pretreatment 18 or 72 h, MOI 1, 96 hpi) was “modest reduction”. Further, the “luciferase activity reduction, second cycle” value was “approximately 45%” in series [4] (MDP pretreatment 18 h) and about 75% in series [4] (MDP pretreatment 72 h).
